From US11690810B2, “Combination treatment of bacterial infection” (The Chinese University of Hong Kong, priority 2018, dated 2023)
Read-outs that look alike come from different tables or passages of the source.

What was measured:
Experiment in all cases: MIC and checkerboard (FIC) assay
[1] = test system: S. aureus SA-ANT4′ (ANT4), resistant to fusidic acid; details: Staphylococcus aureus, read-out: Minimum inhibitory concentration to compound (MIC)
[2] = test system: S. aureus SA-1199B (NorA efflux pump overexpressed); details: Staphylococcus aureus, read-out: Minimum inhibitory concentration to compound (MIC), 1199B′; Table 8
[3] = test system: S. aureus SA-APH3′ (APH3), resistant to kanamycin; details: Staphylococcus aureus, read-out: Minimum inhibitory concentration to compound (MIC)
[4] = test system: S. aureus SA-RN4220-pUL5054 (RN4220); details: Staphylococcus aureus
MRSA SA-ST239 = details: for FIC / MIC combine: ST239; for MIC: Staphylococcus aureus, MRSA
[5] = test system: S. aureus SA-APH2″-AAC6′ (APH2), resistant to gentamicin; details: for MIC: Staphylococcus aureus
CA-MRSA strain ST30 = assay type: cell-based, Staphylococcus aureus; details: Staphylococcus aureus, MRSA
HA MRSA W233 = test system: HA MRSA W233
HA MRSA W238 = test system: HA MRSA W238
HA MRSA W231 = test system: HA MRSA W231
[6] = read-out: Minimum inhibitory concentration to compound (MIC)
[7] = read-out: Activity (MIC, μg/ml)
[8] = ST30, Table 8, read-out: Minimum inhibitory concentration to compound (MIC)
[9] = ST30, read-out: Activity (MIC, μg/ml)
[10] = APH2″-AAC6′, ECG with WQD-169 (Kuraridin)

| Molecule | MIC [1] [µg/mL] | MIC [2] [µg/mL] | MIC [3] [µg/mL] | MIC [4, 6] [µg/mL] | MIC (MRSA SA-ST239; [7]) [µg/mL] | MIC (MRSA SA-ST239; read-out: MIC alone) [µg/mL] | MIC ([5]; read-out: MIC alone) [µg/mL] | MIC [5, 6] [µg/mL] | MIC (CA-MRSA strain ST30; [8]) [µg/mL] | MIC (CA-MRSA strain ST30; [9]) [µg/mL] | other results |
| --- | --- | --- | --- | --- | --- | --- | --- | --- | --- | --- | --- |
| C=C(C)C(CC=C(C)C)Cc1c(O)cc(OC)c(C(=O)/C=C/c2ccc(O)cc2OC)c1O (racemic) [WQD-164, (E)-1-(2,4-dihydroxy-6-methoxy-3-(5-methyl-2-(prop-1-en-2-yl)hex-4-en-1-yl)phenyl)-3-(4-hydroxy-2-methoxyphenyl)prop-2-en-1-one] | 32 | 64 | 32 | 64 | 32 | 32 | 16 | 16 | 128 | 128 | FIC (MRSA SA-ST239; ECG with WQD-164): 0.50; MIC combine (MRSA SA-ST239; ECG with WQD-164): 4 µg/mL; FIC ([5]; APH2″-AAC6′, ECG with WQD-164): 0.50; MIC combine ([5]; APH2″-AAC6′, ECG with WQD-164): 8 µg/mL |
| C=C(C)C(CC=C(C)C)Cc1c(OC)cc(OC)c(C(=O)/C=C/c2ccc(OCc3ccccc3)cc2OCc2ccccc2)c1OC (stereo not drawn) [WQD-8] | – | – | – | – | > 256 | – | – | – | – | – | MIC [4, 7]: > 256 µg/mL; MIC (CA-MRSA strain ST30; [7]): > 256 µg/mL |
| C=C(C)C(CC=C(C)C)Cc1c(O)cc(OC)c(C(=O)/C=C/c2ccc(O)cc2O)c1O (stereo not drawn) [WQD-169, (E)-1-(2,4-dihydroxy-6-methoxy-3-(5-methyl-2-(prop-1-en-2-yl)hex-4-en-1-yl)phenyl)-3-(2,4-dihydroxyphenyl)prop-2-en-1-one] | 8 | 8 | 8 | 8 | 8 | 8 | – | 8 | 8 | 8 | FIC (MRSA SA-ST239; ECG with WQD-169 (Kuraridin)): 0.5; MIC combine (MRSA SA-ST239; ECG with WQD-169 (Kuraridin)): 4 µg/mL; FIC [5, 10]: 0.25; MIC combine [5, 10]: 2 µg/mL; MIC alone ([5]; Strain APH2″-AAC6′, Table 9): 8 µg/mL |
| C=C(C)C(CC=C(C)C)Cc1c(O)cc(OC)c(C(=O)/C=C/c2ccccc2O)c1O (stereo not drawn) [WQD-165] | 8 | 8 | 4 | 8 | 4 | 4 | 4 | 4 | 32 | 32 | FIC (MRSA SA-ST239; ECG with WQD-165): 1; MIC combine (MRSA SA-ST239; ECG with WQD-165): 4 µg/mL; FIC ([5]; APH2″-AAC6′, ECG with WQD-165): 1; MIC combine ([5]; APH2″-AAC6′, ECG with WQD-165): 4 µg/mL |
| C=C(C)C(CC=C(C)C)Cc1c(O)cc(OC)c(C(=O)/C=C/c2ccc(O)cc2)c1O (stereo not drawn) [WQD-175] | 8 | 8 | 4 | 8 | 4 | 4 | 4 | 4 | 16 | 16 | FIC (MRSA SA-ST239; ECG with WQD-175): 1; MIC combine (MRSA SA-ST239; ECG with WQD-175): 4 µg/mL; FIC ([5]; APH2″-AAC6′, ECG with WQD-175): 1; MIC combine ([5]; APH2″-AAC6′, ECG with WQD-175): 4 µg/mL |
| C=C(C)C(CC=C(C)C)Cc1c(OC)cc(OC)c(C(=O)/C=C/c2ccccc2O)c1OC (stereo not drawn) [WQD-98] | – | – | – | – | > 256 | – | – | – | – | – | MIC [4, 7]: > 256 µg/mL; MIC (CA-MRSA strain ST30; [7]): > 256 µg/mL |
| gentamicin [reference compound] | – | – | – | – | – | – | – | – | – | – | MIC alone (HA MRSA W233; W233 (gentamicin resistant)): 512 µg/mL; FIC (HA MRSA W233; W233, ECG+Kur+Gen): 0.03; MIC combine (HA MRSA W233; W233, ECG+Kur+Gen): 16 µg/mL; MIC alone ([5]; APH2 (gentamicin resistant)): > 512 µg/mL; MIC alone ([5]; APH2 (gentamicin resistant), listed as Gen): 512 µg/mL; FIC ([5]; APH2, ECG+Kur+Gen): 0.0312; MIC combine ([5]; APH2, ECG+Kur+Gen): 16 µg/mL; MIC alone (HA MRSA W238; W238 (gentamicin resistant)): 512 µg/mL; FIC (HA MRSA W238; W238, ECG+Kur+Gen): 0.03; MIC combine (HA MRSA W238; W238, ECG+Kur+Gen): 16 µg/mL; MIC alone (HA MRSA W231; W231 (gentamicin resistant)): 64 µg/mL; FIC (HA MRSA W231; W231, ECG+Kur+Gen): 0.015; MIC combine (HA MRSA W231; W231, ECG+Kur+Gen): 1 µg/mL |
